Here are results for 38 molecules from patent US10696638B2, “Compounds for inhibiting AGC kinase and pharmaceutical compositions comprising the same” (Industrial Technology Research Institute, priority 2017, dated 2020).

ROCK2, sequence (O75116 whole entry, species assumed): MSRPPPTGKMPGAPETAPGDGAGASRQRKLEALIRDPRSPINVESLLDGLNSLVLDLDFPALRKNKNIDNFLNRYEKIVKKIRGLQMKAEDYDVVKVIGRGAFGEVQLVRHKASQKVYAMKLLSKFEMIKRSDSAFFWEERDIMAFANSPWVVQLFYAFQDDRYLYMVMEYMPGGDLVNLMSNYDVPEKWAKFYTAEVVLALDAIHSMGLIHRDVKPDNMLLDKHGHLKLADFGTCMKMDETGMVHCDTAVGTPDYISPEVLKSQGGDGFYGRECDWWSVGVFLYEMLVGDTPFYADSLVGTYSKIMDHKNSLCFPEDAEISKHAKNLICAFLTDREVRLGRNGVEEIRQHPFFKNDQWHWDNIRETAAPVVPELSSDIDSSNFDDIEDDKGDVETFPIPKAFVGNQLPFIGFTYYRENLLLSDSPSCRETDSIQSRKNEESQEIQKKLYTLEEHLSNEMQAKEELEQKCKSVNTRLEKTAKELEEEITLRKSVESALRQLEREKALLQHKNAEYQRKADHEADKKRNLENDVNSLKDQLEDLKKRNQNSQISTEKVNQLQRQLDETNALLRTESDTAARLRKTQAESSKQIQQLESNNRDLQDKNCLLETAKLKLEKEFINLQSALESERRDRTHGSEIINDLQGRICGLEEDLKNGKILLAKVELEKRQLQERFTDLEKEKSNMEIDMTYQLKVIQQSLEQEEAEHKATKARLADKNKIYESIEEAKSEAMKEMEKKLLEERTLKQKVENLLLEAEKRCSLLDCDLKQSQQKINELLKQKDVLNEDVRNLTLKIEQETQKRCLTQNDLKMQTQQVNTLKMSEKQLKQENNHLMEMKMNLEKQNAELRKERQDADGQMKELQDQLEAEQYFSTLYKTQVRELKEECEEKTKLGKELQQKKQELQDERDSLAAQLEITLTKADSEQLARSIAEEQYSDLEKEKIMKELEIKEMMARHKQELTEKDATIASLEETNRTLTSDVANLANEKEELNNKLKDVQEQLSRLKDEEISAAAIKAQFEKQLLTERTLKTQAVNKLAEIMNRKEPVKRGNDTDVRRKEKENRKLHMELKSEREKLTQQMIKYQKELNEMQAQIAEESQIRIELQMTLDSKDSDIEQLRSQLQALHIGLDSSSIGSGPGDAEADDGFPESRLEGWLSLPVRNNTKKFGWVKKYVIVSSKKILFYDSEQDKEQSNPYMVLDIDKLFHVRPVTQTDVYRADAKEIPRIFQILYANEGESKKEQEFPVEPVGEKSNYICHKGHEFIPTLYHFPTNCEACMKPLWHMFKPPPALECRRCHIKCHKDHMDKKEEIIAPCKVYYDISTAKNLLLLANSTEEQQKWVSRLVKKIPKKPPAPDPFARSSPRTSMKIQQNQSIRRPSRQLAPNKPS

One assay deals with ROCK2 (Homo sapiens (Human), UniProt O75116). As to the kind of experiment: Rho-kinase inhibition ELISA (ROCK active-II, MYPT1 substrate). The class given is biochemical. The settings on record: Table 1; classes given as pIC50; ATP 250 μM; read-out: ROCK2 IC50. The method, then:
To measure Rho-kinase inhibition, IC50 values were determined according to the following ELISA protocol:
ROCK Substrate Coated Plate (Part No 241601): One strip well 96-well plate pre-coated with recombinant MYPT1.
Buffer: 25 mM Tris, pH 7.5, 10 mM MgCl2, 5 mM Glycerol-2-Phosphate, 0.1 mM Na3VO4; 1% DMSO; 2.5 mM DTT; (Enzyme: ROCK active-II) (Cell Biolabs, Catalog #STA-406, Part No. 241505) 0.1 ng/μl.
ATP Solution (Part No. 241604): 100 mM ATP. Final concentration of ATP in reaction mixture: 250 μM.
Secondary Antibody, HRP Conjugate (Part No. 231003).
Biotinylated substrate, diluted to 0.25 μM with buffer described above (without ATP).
1. Purified kinase or cell lysate sample can be used directly in the kinase assay or further diluted with 1× Kinase Buffer. Each sample should be assayed in duplicate.
2. Add 90 μL of the diluted active ROCK-II positive control or unknown ROCK samples to the wells of the substrate plate.
3. Initiate the kinase reaction by adding 10 μL of the 10× Kinase Reaction Buffer containing DTT and ATP. Mix well.
4. Cover with a plate cover and incubate the wells at 30° C. for 30-60 minutes with gentle agitation.
5. Stop kinase reaction by flicking out the content or by adding 50 μL of 0.5M EDTA, pH 8.0, to each well.
6. Remove the plate cover and empty wells. Wash microwell strips 3 times with 250 μL 1× Wash Buffer per well with thorough aspiration between each wash. After the last wash, empty wells and tap microwell strips on absorbent pad or paper towel to remove excess 1× Wash Buffer.
7. Add 100 μL of the diluted anti-phospho-MYPT1 (Thr696) antibody to each well.
8. Cover with the plate cover and incubate at room temperature for 1 hour on an orbital shaker.
9. Remove the plate cover and empty wells. Wash the strip wells 3 times according to step 6 above.
10. Add 100 μL of the diluted HRP-conjugated secondary antibody to each well.
11. Cover with the plate cover and incubate at room temperature for 1 hour on an orbital shaker.
12. Remove the plate cover and empty wells. Wash microwell strips 3 times according to step 6 above. Proceed immediately to the next step.
13. Warm Substrate Solution to room temperature. Add 100 μL of Substrate Solution to each well, including the blank wells. Incubate at room temperature for 5-20 minutes on an orbital shaker.
14. Stop the enzyme reaction by adding 100 μL of Stop Solution into each well, including the blank wells. Results should be read immediately (color will fade over time).
15. Read absorbance of each microwell on a spectrophotometer using 450 nm as the primary wave length.
The given activity (shown in Table 1 and Table 2) is denoted as the negative logarithm of the IC50 (pIC50) as follows: […]
On to `CN(C)CCN(Cc1ccc(F)cc1)C(=O)Nc1ccc2cnccc2c1` [compound 2], for which the IC50 lay within 10 to 100 nM.

In the case of `CN(C)CCN(Cc1ccc(Cl)cc1)C(=O)Nc1ccc2cnccc2c1` [compound 1], the IC50 was 10 to 100 nM. Same read-out and setting: the result for `CN(C)CCN(Cc1cccc(F)c1)C(=O)Nc1ccc2cnccc2c1` [compound 8] reads 100 to 1000 nM; that for `O=C(Nc1ccc2cnccc2c1)N[C@@H](CO)c1ccccc1` [compound 6], 10 to 100 nM; that for `COc1cccc(CN(CCN(C)C)C(=O)Nc2ccc3cnccc3c2)c1` [compound 3], 100 to 1000 nM. Same read-out and setting: the result for `COc1cccc(CN(CCO)C(=O)Nc2ccc3cnccc3c2)c1` [compound 4] reads 100 to 1000 nM.

Still in this assay, the particulars now being: Table 2; classes given as pIC50; ATP 250 μM.
As to `CSc1ccc(CN(CCN)C(=O)Nc2ccc3cnccc3c2)cc1` [compound 17], the “ROCK IC50” value is recorded as “+ (pIC50<6.0)”. `COC(=O)c1ccc(CN(CCN)C(=O)Nc2ccc3cnccc3c2)cc1` [compound 18]: the “ROCK IC50” value is on record as “+ (pIC50<6.0)”.

As to `NCC(NC(=S)Nc1ccc2cnccc2c1)c1ccccc1` (centres unmarked) [compound 24], the “ROCK IC50” value was “++++ (pIC50>8.0)”. Consider `NCC(NC(=S)Nc1ccc2cnccc2c1)c1ccc(F)cc1` (centres unmarked) [compound 26], for which the “ROCK IC50” value is given as “++++ (pIC50>8.0)”. In the case of `COc1ccc(CN(CCN)/C(=N\C#N)Nc2ccc3cnccc3c2)cc1` [compound 37], the “ROCK IC50” value is on record as “++++ (pIC50>8.0)”. Regarding `COC(=O)c1ccc(CN(CCN(C)C)C(=O)Nc2cccc3cnccc23)cc1` [compound 10], the “ROCK IC50” value is “+ (pIC50<6.0)”.

For `CN(C)CCN(Cc1ccc(CO)cc1)C(=S)Nc1cccc2cnccc12` [compound 12], the “ROCK IC50” value is “+ (pIC50<6.0)”. Consider `NCCN(Cc1ccc(Cl)cc1)C(=S)Nc1ccc2cnccc2c1` [compound 31], for which the “ROCK IC50” value is recorded as “++++ (pIC50>8.0)”. Still for that read-out and setting: next, `Cl.NCC(NC(=S)Nc1ccc2cnccc2c1)c1cccc2ccccc12` (centres unmarked) [compound 39]: “++++ (pIC50>8.0)”.

For the molecule `N#C/N=C(/Nc1ccc2cnccc2c1)N(CCN)Cc1ccccc1` [compound 36], the “ROCK IC50” value is listed as “++++ (pIC50>8.0)”.

As to `NCCN(Cc1ccc(F)cc1)C(=O)Nc1cccc2cnccc12` [compound 20], the “ROCK IC50” value is reported as “+ (pIC50<6.0)”. The same measure, in the same setting: the result for `NCC(NC(=O)Nc1ccc2cnccc2c1)c1ccc(F)cc1` (centres unmarked) [compound 25] reads “++++ (pIC50>8.0)”. Consider `NCCN(Cc1ccc(O)cc1)C(=O)Nc1ccc2cnccc2c1` [compound 13], for which the “ROCK IC50” value is “+ (pIC50<6.0)”.

Turning to `COc1cccc(C(CN)NC(=S)Nc2ccc3cnccc3c2)c1` (centres unmarked) [compound 35], the “ROCK IC50” value is given as “++++ (pIC50>8.0)”.

The assay is the same for the next values; noted with them: Table 2; classes given as pIC50; ATP 250 μM; read-out: ROCK IC50.
In the case of `NCCN(Cc1ccc(Br)cc1)C(=O)Nc1ccc2cnccc2c1` [compound 15], the IC50 is 100 to 1000 nM.

As to `N#C/N=C(/Nc1ccc2cnccc2c1)N(CCN)Cc1ccc(F)cc1` [compound 30], the IC50 fell in the range of 10 to 100 nM. On to `NCCN(Cc1ccc(Cl)c(F)c1)C(=S)Nc1ccc2cnccc2c1` [compound 33], for which the concentration for half-maximal inhibition (IC50) was 100 to 1000 nM. In the case of `NCCN(Cc1cccc(F)c1)C(=O)Nc1ccc2cnccc2c1` [compound 16], the IC50 fell in the range of 100 to 1000 nM. Take `CN(C)CCN(Cc1ccc(Cl)cc1)C(=O)Nc1cccc2cnccc12` [compound 7]: the half-maximal inhibitory concentration (IC50) was 100 to 1000 nM. With `N#C/N=C(/Nc1ccc2cnccc2c1)N(CCN)Cc1cccc(F)c1` [compound 29], the IC50 lay within 10 to 100 nM.

Regarding `Cc1ccc(CN(CCN)C(=S)Nc2ccc3cnccc3c2)cc1` [compound 32], the half-inhibitory concentration (IC50) was 100 to 1000 nM.

Consider `NCCN(Cc1cccc(F)c1)C(=S)Nc1ccc2cnccc2c1` [compound 28], for which the IC50 was 100 to 1000 nM. As to `CN(C)CCN(Cc1ccc(F)cc1)C(=S)Nc1cccc2cnccc12` [compound 11], the half-maximal inhibitory concentration (IC50) is 100 to 1000 nM.

For `CC(c1ccc(F)cc1)N(CCN)C(=O)Nc1ccc2cnccc2c1` (centres unmarked) [compound 22], the IC50 was 100 to 1000 nM. Still for that read-out and setting: the result for `NCCN(Cc1ccccc1)C(=S)Nc1ccc2cnccc2c1` [compound 27] reads 100 to 1000 nM; that for `CN(C)CCN(Cc1ccccc1)C(=O)Nc1cccc2cnccc12` [compound 6], 100 to 1000 nM. The same measure, in the same setting: next, `NCCN(Cc1ccc(F)cc1)C(=S)Nc1ccc2cnccc2c1` [compound 19]: 100 to 1000 nM; `CC(c1ccc(F)cc1)N(CCN)C(=O)Nc1ccc2cnccc2c1` (centres unmarked) [compound 23]: 10 to 100 nM. For the molecule `N#C/N=C(\Nc1ccc2cnccc2c1)N(CCN)Cc1ccc(Br)cc1` [compound 34], the IC50 lay in the range of 10 to 100 nM. On to `NCCN(Cc1cccc(Cl)c1)C(=S)Nc1ccc2cnccc2c1` [compound 38], for which the half-maximal inhibitory concentration (IC50) is 10 to 100 nM. Still for that read-out and setting: the result for `NCCN(Cc1ccccc1)C(=O)Nc1ccc2cnccc2c1` [compound 14] reads 100 to 1000 nM.

With `NCCN(Cc1ccc(F)cc1)C(=O)Nc1ccc2cnccc2c1` [compound 8], the half-maximal inhibitory concentration (IC50) lay in the range of 100 to 1000 nM.

A word on the IC50: it is the midpoint of a concentration-inhibition curve.
